Reference: publication PMC8003321, “5-Aryl-1-Arylideneamino-1H-Imidazole-2(3H)-Thiones: Synthesis and In Vitro Anticancer Evaluation” (Molecules, 2021)

What was measured:
[1] = test system: colon carcinoma (HCT-116); test: MTT cytotoxicity assay, HCT-116; format: cell-based; conditions: 24 h treatment, mean of three experiments
Procedure: (§1) The effect of imidazole molecules 4a–e and 5 on the viability of three cancer cell lines were studied using the MTT assay. The cytotoxicity was assessed using Docetaxel (DOC) as a standard antitumor drug. The three cancer cell lines were MCF-7 (breast cancer cell line), colon carcinoma (HCT-116), and HepG2 (hepatocellular carcinoma cell line). […] Moreover, the safety of compounds 4d and 5 was assessed against a normal breast cell line (MCF-10A) using the MTT assay.
(§2) Antitumor activity of the newly prepared imidazole compounds 4a–e and 5 were carried out against MCF-7, HepG2, HCT-116, and MCF-10A using the MTT assay method. Cells at a density of 1 × 10^4 were seeded in 96-well plates at 37 °C for 48 h under 5% CO2. After incubation, the cells were treated with different concentrations of the prepared molecules and incubated for 24 h. MTT dye was added at the end of 24 h of drug treatment and incubated for 4 h at 37 °C. Next, 100 µL of dimethyl sulfoxide was added to each well to dissolve the purple formazan formed. The color intensity of the formazan product, which represents the growth condition of the cells, is quantified using an ELISA plate reader at 570 nm. The experimental conditions were carried out with at least three replicates and the experiments were repeated at least three times.

[2] = test system: HepG2 (hepatocellular carcinoma cell line); test: MTT cytotoxicity assay, HepG2; format: cell-based; conditions: Homo sapiens, HepG2, 24 h, 24 h treatment, mean of three experiments
Procedure: as §1, §2

[3] = test system: normal breast cell line (MCF-10A); test: MTT cytotoxicity assay, normal breast cell line MCF-10A; format: cell-based; conditions: for IC50: Homo sapiens, MCF-10A, 24 h treatment
Procedure: as §1, §2

[4] = test system: MCF-7 (breast cancer cell line); test: MTT cytotoxicity assay, MCF-7; format: cell-based; conditions: Homo sapiens, MCF7, 24 h, 24 h treatment, mean of three experiments
Procedure: as §1, §2

[5] = test system: MCF-7 cell line; design: method as in PMID 32757353; conditions: read-out: IC50 against MCF-7 cell line; cited from earlier work
[6] = test system: MCF-7 cells; test: Annexin V-FITC/PI apoptosis induction analysis; format: cell-based; conditions: MCF-7, compound at its IC50, 48 h; for percent of early apoptosis: lower right quadrant, control 0.43%; for percent of late apoptosis: upper right quadrant, control 0.23%
Procedure: Several imidazole molecules have been reported in the literature as apoptosis inducers in several tumor cell lines. To evaluate the mode of cell death induced by compounds 4d and 5, Annexin V/FITC and propidium iodide (PI) assays were performed. MCF-7 cells were treated with compounds 4d and 5 at their IC50 concentration dose value for 48 h.
Apoptosis in MCF-7 cells was investigated using fluorescent Annexin V-FITC/PI detection kit by flow cytometry assay. Briefly, MCF-7 cells (2 × 10^5) after incubation for 12 h. Cells were treated with compounds 4d and 5 at their IC50 concentration for 48 h, then the cells were harvested and stained with Annexin V-FITC/PI dye for 15 min in the dark at 37 °C. Flow cytometry analyses were performed using a FACS Calibur flow cytometer (Becton and Dickinson, Heidelberg, Germany).

[7] = target: T1, B-Raf^V600E (Homo sapiens, UniProt P15056, V600E); test: In vitro B-Raf kinase assay (ELISA); format: biochemical; conditions: n = 3, read-out: IC50 against B-Raf^V600E (converted)
T1 construct: purchased
T1 sequence (P15056 whole entry V600E): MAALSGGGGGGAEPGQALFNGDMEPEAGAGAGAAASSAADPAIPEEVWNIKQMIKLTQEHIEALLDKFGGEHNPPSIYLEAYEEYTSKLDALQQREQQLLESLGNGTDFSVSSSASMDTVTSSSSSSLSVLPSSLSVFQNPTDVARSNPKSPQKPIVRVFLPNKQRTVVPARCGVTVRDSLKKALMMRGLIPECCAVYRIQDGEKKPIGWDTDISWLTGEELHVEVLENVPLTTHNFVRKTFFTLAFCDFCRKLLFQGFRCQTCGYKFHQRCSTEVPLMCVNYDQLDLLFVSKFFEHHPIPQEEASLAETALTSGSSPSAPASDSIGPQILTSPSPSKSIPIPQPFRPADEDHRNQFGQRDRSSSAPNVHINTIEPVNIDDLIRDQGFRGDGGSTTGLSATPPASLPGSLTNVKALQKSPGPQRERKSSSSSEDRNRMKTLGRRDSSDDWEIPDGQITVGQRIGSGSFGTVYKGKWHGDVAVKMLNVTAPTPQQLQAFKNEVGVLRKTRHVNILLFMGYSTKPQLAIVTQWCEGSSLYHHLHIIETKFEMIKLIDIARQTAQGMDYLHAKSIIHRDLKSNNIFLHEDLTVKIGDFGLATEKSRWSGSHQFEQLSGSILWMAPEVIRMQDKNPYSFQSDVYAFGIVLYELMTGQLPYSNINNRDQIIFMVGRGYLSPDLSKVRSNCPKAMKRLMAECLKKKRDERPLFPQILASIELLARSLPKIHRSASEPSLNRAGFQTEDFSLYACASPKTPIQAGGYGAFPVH
Procedure: Raf is a protein kinase that initiates a cascade of other protein kinases by acting on the protein kinases MEK-1 and MEK-2 [21].
(§3) Next, 100 µL of standard solution and tested molecules were pipetted into the 96-wells and B-RAF was bound to the wells by the immobilized antibody. The wells were washed and biotinylated antihuman B-Raf antibody was added. After washing away unbound biotinylated antibody, 100 µL of conjugated streptavidin solution was pipetted into the wells. After washing, 100 µL of TMB substrate solution was added to the wells for 30 min at 37 °C. Stop solution (50 µL) was added, and the intensity of the color is measured immediately at 450 nm.

[8] = test system: MCF-7 cells; test: Cell cycle analysis by DNA flow cytometry; format: cell-based; conditions: MCF-7, compound at its IC50, 48 h; for percentage of cells at pre-G1 phase: control 1.61%; for percentage of cell population at the G2/M phase: control 8.79%
Procedure: Therefore, it can be concluded that compounds 4d and 5 inhibit the cell proliferation of MCF-7 cells via cell cycle arrest at the G2/M phase and induction of apoptosis (Figure 2).
MCF-7 cells (2 × 10^5/well) were harvested and washed twice in PBS. After that, cells were incubated at 37 °C and 5% CO2. The medium was replaced with DMSO (1% v/v) containing the tested compounds, then incubated for 48 h, washed twice in PBS, fixed with 70% ethanol, rinsed again with PBS, and then stained with DNA fluorochrome PI for 15 min at 37 °C. DNA content was analyzed by flow cytometry on a FACS Calibur flow cytometer (Becton and Dickinson, Heidelberg, Germany).

[9] = target: T2, human VEGFR-2 (Homo sapiens, UniProt P35968); test: In vitro VEGFR-2 kinase assay (ELISA); format: biochemical; conditions: n = 3, read-out: IC50 against VEGFR-2 kinase (converted)
T2 construct: purchased
T2 sequence (P35968 20-1356): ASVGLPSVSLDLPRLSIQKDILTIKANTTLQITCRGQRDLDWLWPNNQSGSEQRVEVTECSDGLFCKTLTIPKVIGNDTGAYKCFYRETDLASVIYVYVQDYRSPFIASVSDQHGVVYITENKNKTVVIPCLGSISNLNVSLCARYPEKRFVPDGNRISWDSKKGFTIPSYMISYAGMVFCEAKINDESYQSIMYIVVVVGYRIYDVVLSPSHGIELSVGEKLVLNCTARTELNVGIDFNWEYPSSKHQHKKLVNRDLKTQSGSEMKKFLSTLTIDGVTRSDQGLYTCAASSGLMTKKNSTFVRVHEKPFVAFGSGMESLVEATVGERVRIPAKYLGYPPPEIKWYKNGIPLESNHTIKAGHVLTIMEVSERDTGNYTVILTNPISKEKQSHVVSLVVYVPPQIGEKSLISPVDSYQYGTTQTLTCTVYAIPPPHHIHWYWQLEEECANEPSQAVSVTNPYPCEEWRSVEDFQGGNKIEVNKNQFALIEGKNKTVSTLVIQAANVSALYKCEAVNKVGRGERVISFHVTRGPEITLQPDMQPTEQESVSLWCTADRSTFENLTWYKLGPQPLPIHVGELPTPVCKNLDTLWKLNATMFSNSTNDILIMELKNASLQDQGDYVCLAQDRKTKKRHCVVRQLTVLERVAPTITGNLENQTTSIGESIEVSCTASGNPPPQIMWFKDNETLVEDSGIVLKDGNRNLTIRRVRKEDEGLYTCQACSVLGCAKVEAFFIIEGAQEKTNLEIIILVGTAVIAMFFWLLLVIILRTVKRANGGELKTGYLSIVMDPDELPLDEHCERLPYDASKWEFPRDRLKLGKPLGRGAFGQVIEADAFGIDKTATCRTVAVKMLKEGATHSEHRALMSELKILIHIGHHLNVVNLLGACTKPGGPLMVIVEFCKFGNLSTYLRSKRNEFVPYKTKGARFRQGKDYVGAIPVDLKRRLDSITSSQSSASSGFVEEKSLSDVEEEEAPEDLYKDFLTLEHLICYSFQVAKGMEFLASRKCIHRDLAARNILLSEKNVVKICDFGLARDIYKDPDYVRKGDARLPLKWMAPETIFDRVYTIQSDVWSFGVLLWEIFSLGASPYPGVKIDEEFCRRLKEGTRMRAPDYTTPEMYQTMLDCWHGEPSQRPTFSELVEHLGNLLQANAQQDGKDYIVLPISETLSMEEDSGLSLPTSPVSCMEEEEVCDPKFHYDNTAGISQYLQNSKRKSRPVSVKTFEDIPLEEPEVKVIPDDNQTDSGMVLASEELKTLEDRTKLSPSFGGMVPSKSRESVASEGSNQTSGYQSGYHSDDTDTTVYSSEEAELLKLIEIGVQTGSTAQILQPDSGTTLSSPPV
Procedure: To investigate the possible molecular mechanism underlying the potent anticancer activity of compounds 4d and 5. Their inhibitory activity against VEGFR-2 kinase was determined using an ELISA assay.
as §3, with “A total of” for “Next,”, “VEGFR-2” for “B-RAF”, “VEGFR-2” for “B-Raf”, “was” for “is”

Row | SMILES | IC50 ([1]; Homo sapiens, HCT-116, 24 h) [µM] | IC50 [2] [µM] | IC50 [3] [µM] | IC50 [4] [µM] | melting point [°C] | also measured
1 | CC(=O)O[C@@]12CO[C@@H]1C[C@H](O)[C@@]1(C)C(=O)[C@H](O)C3=C(C)[C@@H](OC(=O)[C@H](O)[C@@H](NC(=O)OC(C)(C)C)c4ccccc4)C[C@@](O)([C@@H](OC(=O)c4ccccc4)[C@H]21)C3(C)C [DOC, Docetaxel, reference compound] | 14 ± 0.9 | 8.13 ± 0.5 | 33.17 ± 0.19 | 11.1 ± 0.7 |  | 
2 | CC(=O)Oc1ccccc1/C=N/n1c(-c2ccc(Cl)cc2)cn(C(C)=O)c1=S [Compound 6, (E)-2-((3-Acetyl-5-(4-chlorophenyl)-2-thioxo-2,3-dihydro-1H-imidazol-1-ylimino)methyl)phenyl Acetate] |  |  |  |  | 115 to 117 | 
3 | CCOC(=O)/C(C#N)=C(\c1ccc(O)cc1)n1cc(O)n(/N=C/C=C/c2ccccc2)c1=S [compound III] |  |  |  |  |  | IC50 [5]: 3.26 µM
4 | COc1ccc(/C=N/n2c(-c3ccc(Cl)cc3)c[nH]c2=S)cc1 [Compound 4d, (E)-5-(4-Chlorophenyl)-1-(4-methoxybenzylideneamino)-1H-imidazole-2(3H)-thione] | 28.9 ± 1.9 | 4.09 ± 0.3 | 44.06 ± 0.23 | 7.97 ± 0.5 |  | percent of early apoptosis [6]: 6.12%; percent of late apoptosis [6]: 10.23%; IC50 [7]: 38 µM; percentage of cells at pre-G1 phase [8]: 22.36%; percentage of cell population at the G2/M phase [8]: 35.55%; IC50 [9]: 0.721 µM; cytotoxic effect towards MCF-10A (in words) [3]: weak cytotoxic effect
5 | S=c1[nH]cc(-c2ccc(Cl)cc2)n1/N=C/C=C/c1ccccc1 [Compound 4e, 5-(4-Chlorophenyl)-1-((E)-((E)-3-phenylallylidene)amino)-1H-imidazole-2(3H)-thione] | 3.99 ± 0.3 | 17 ± 1.1 |  | 13.2 ± 0.9 | 139 to 141 | 
6 | COc1ccc(-c2c[nH]c(=S)n2/N=C/c2ccccc2O)cc1 [Compound 5, (E)-1-(2-Hydroxybenzylideneamino)-5-(4-methoxyphenyl)-1H-imidazole-2(3H)-thione] | < 5 |  | 27.8 ± 0.31 |  |  | percent of early apoptosis [6]: 2.66%; percent of late apoptosis [6]: 13.64%; IC50 [1]: 3.99 ± 0.3 µM; IC50 [7]: 7.31 µM; percentage of cells at pre-G1 phase [8]: 22.81%; percentage of cell population at the G2/M phase [8]: 25.63%; IC50 [9]: 0.252 µM; cytotoxic effect towards MCF-10A (in words) [3]: weak cytotoxic effect
7 | S=c1[nH]cc(-c2ccc(Cl)cc2)n1/N=C/c1ccccc1 [Compound 4a, (E)-1-(Benzylideneamino)-5-(4-chlorophenyl)-1H-imidazole-2(3H)-thione] | 20.6 ± 1.4 | 61.8 ± 4.1 |  | > 50 | 121 to 123 | 
8 | CNC(=O)c1cc(Oc2ccc(NC(=O)Nc3ccc(Cl)c(C(F)(F)F)c3)cc2)ccn1 [SOR] |  |  |  |  |  | IC50 [5]: 1.12 µM
9 | Oc1ccccc1/C=N/n1c(-c2ccc(Cl)cc2)c[nH]c1=S [Compound 4b, (E)-5-(4-Chlorophenyl)-1-(2-hydroxybenzylideneamino)-1H-imidazole-2(3H)-thione] | 23.5 ± 1.6 | > 50 |  | 24.9 ± 1.6 | 128 to 130 | 
10 | Oc1ccc(Br)cc1/C=N/n1c(-c2ccc(Cl)cc2)c[nH]c1=S [Compound 4c, (E)-1-(5-Bromo-2-hydroxybenzylideneamino)-5-(4-chlorophenyl)-1H-imidazole-2(3H)-thione] | 9.96 ± 0.7 | 11.4 ± 0.8 |  | 44 ± 2.9 | 191 to 193 | 
